Peptide text beside a SMILES is read from it.
Target: T1, HLA A*2402 (Homo sapiens, UniProt P04439, D101N/D140Y/D185E/E176V/E190D/F33S/G103R/G107R/I119L/I121M/I306V/K335N/L105A/L180Q/L300P/N151K/N90K/Q86E/Q94H/R106L/R138H/R89G/T104I/T345S/V100E/W191G/Y123F)
T1 construct: Pure Protein, LLC (ran the assay)
Test: In vitro class I HLA binding competition assay (fluorescence polarization)
Details: allele A2402; cell-free competition with fluorescently labeled control peptide, fluorescence polarization at 72 hours
Method: The cell-free class I HLA binding assay in use at Pure Protein, LLC allows for in vitro quantification of peptide-HLA binding affinity in a competition format. In this assay, a fluorescently labeled, high binding, control peptide is loaded onto 384-well ½-area plates along with unlabeled experimental peptides. To remove endogenous peptides and render the HLA A and B molecules receptive to binding, HLA is heated at 53°C for 15 minutes and immediately added to the assay. The mixture is then allowed to stand for three days. […] Binding of experimental peptides is expressed as the percent inhibition of the labeled control peptide (experimental fluorescence / control fluorescence, multiplied by 100). The percent inhibition values for each experimental peptide (across a range of molar concentrations) are used to calculate the concentration which inhibits 50% of the labeled control peptide’s specific binding. This value is referred to as the peptide’s IC50.

Compound: CC[C@H](C)[C@H](NC(=O)[C@H](CO)NC(=O)[C@H](CO)NC(=O)[C@H](CC(N)=O)NC(=O)[C@@H](NC(=O)[C@@H](NC(=O)[C@H](CC(N)=O)NC(=O)[C@H](Cc1ccccc1)NC(=O)[C@@H](N)C(C)C)C(C)C)C(C)C)C(=O)O [Cluster 377_3D7] (H-VFNVVNSSI-OH)
- IC50: 11.6 µM

Compound: CC[C@H](C)[C@H](NC(=O)[C@@H](N)CC(C)C)C(=O)N[C@@H](CCSC)C(=O)N[C@H](C(=O)N[C@@H](CC(C)C)C(=O)N[C@@H](CO)C(=O)N[C@@H](Cc1ccccc1)C(=O)N[C@@H](CC(C)C)C(=O)N[C@@H](Cc1ccccc1)C(=O)O)C(C)C [Cluster 387_3D7] (H-LIMVLSFLF-OH)
- IC50: 19.3 µM

Source: paper PMC8217813, “Bridging Computational Vaccinology and Vaccine Development Through Systematic Identification, Characterization, and Downselection of Conserved and Variable Circumsporozoite Protein CD4 T Cell Epitopes From Diverse Plasmodium falciparum Strains” (Frontiers in Immunology, 2021)
